Data from patent US6737383B1, “Herbicidal oxadiazolidines” (priority 1999, dated 2004).

What was measured:
cocklebur = assay: Test B pre/postemergence cocklebur; assay type: in vivo, Xanthium strumarium
Procedure, shortened: (§1)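 Herbicidal effect was estimated by eye on a ten-point control scale after plants spent twelve to sixteen days in a greenhouse following soil or foliar treatment. Foliar sprays targeted plants at one to four leaves; all doses were formulated in a non-phytotoxic solvent with surfactant.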

corn = assay: Test B pre/postemergence corn; assay type: in vivo, Zea mays
Procedure, shortened: as §1

crabgrass = assay: Test B pre/postemergence crabgrass; assay type: in vivo, Digitaria sanguinalis
Procedure, shortened: as §1

giant foxtail = assay: Test B pre/postemergence giant foxtail; assay type: in vivo, Setaria faberii
Procedure, shortened: as §1

morningglory = assay: Test B pre/postemergence morningglory; assay type: in vivo, Ipomoea hederacea
Procedure, shortened: as §1

pigweed = assay: Test B pre/postemergence pigweed; assay type: in vivo, Amaranthus retroflexus
Procedure, shortened: as §1

rape = assay: Test B pre/postemergence rape; assay type: in vivo, Brassica napus
Procedure, shortened: as §1

soybean = assay: Test B pre/postemergence soybean; assay type: in vivo, Glycine max
Procedure, shortened: as §1

sugar beet = assay: Test B pre/postemergence sugar beet; assay type: in vivo, Beta vulgaris
Procedure, shortened: as §1

velvetleaf = assay: Test B pre/postemergence velvetleaf; assay type: in vivo, Abutilon theophrasti
Procedure, shortened: as §1

wheat = assay: Test B pre/postemergence wheat; assay type: in vivo, Triticum aestivum
Procedure, shortened: as §1

wild oat = assay: Test B pre/postemergence wild oat; assay type: in vivo, Avena fatua
Procedure, shortened: as §1

purple nutsedge = assay: Test B pre/postemergence purple nutsedge; assay type: in vivo, Cyperus rotundus
Procedure, shortened: as §1

rice = assay: Test B flood test rice; assay type: in vivo, Oryza sativa
Procedure, shortened: (§2)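 Flood test on plants grown to the 2-leaf stage; treated plants kept in greenhouse twelve to sixteen days, then visually rated against controls on a 0 (no effect) to 10 (complete control) scale.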

smallflower flatsedge = assay: Test B flood test smallflower flatsedge; assay type: in vivo, Cyperus difformis
Procedure, shortened: as §2

duck salad = assay: Test B flood test duck salad; assay type: in vivo, Heteranthera limosa
Procedure, shortened: as §2

[1] = Postemergence, Rate 62 g/ha, scale 0 to 10, 0 is no effect, 10 is complete control
[2] = Postemergence, Rate 250 g/ha, scale 0 to 10, 0 no effect, 10 complete control
[3] = Preemergence, Rate 62 g/ha, scale 0 to 10 (0 no effect, 10 complete control)
[4] = Preemergence, Rate 125 g/ha, scale 0 to 10 (0 no effect, 10 complete control)
[5] = Preemergence, Rate 250 g/ha, scale of 0 to 10 where 0 is no effect and 10 is complete control
[6] = Preemergence, Rate 500 g/ha, scale 0 (no effect) to 10 (complete control)
[7] = Rate 125 g/ha, Postemergence, scale 0 to 10, 0 no effect, 10 complete control
[8] = Rate 500 g/ha, Postemergence, scale 0 to 10, 0 no effect, 10 complete control
[9] = Rate 62 g/ha, headed Pre-emergence (flood test species), scale 0 to 10 (0 no effect, 10 complete control)
[10] = Rate 125 g/ha, Pre-emergence, flood test species, scale 0 to 10 where 0 is no effect and 10 is complete control
[11] = Rate 250 g/ha, headed Pre-emergence (flood test species), scale 0 to 10 (0 no effect, 10 complete control)
[12] = Rate 500 g/ha, headed Pre-emergence (flood test species), scale 0 to 10 (0 no effect, 10 complete control)

## Cc1ccccc1-n1c(=O)on(C(=O)N(Cc2ccccc2)C(C)C)c1=O [Compound 72]
cocklebur; [1]
  Cocklebur plant response rating: 0
cocklebur; [2]
  Cocklebur plant response rating: 0
cocklebur; [3]
  Cocklebur plant response rating: 0
cocklebur; [4]
  Plant response rating, Cocklebur: 0
cocklebur; [5]
  Plant response rating, Cocklebur: 0
cocklebur; [6]
  Cocklebur plant response rating: 0
cocklebur; [7]
  Cocklebur plant response rating: 0
cocklebur; [8]
  Cocklebur plant response rating: 0
corn; [1]
  Corn plant response rating: 0
corn; [2]
  Corn plant response rating: 0
corn; [3]
  Corn plant response rating: 0
corn; [4]
  Plant response rating, Corn: 0
corn; [5]
  Plant response rating, Corn: 0
corn; [6]
  Corn plant response rating: 0
corn; [7]
  Corn plant response rating: 0
corn; [8]
  Corn plant response rating: 0
crabgrass; [1]
  Crabgrass plant response rating: 0
crabgrass; [2]
  Crabgrass plant response rating: 0
crabgrass; [3]
  Crabgrass plant response rating: 0
crabgrass; [4]
  Plant response rating, Crabgrass: 0
crabgrass; [5]
  Plant response rating, Crabgrass: 0
crabgrass; [6]
  Crabgrass plant response rating: 4
crabgrass; [7]
  Crabgrass plant response rating: 0
crabgrass; [8]
  Crabgrass plant response rating: 0
Giant foxtail; [1]
  Giant foxtail plant response rating: 0
Giant foxtail; [2]
  Giant foxtail plant response rating: 0
Giant foxtail; [3]
  Giant foxtail plant response rating: 0
Giant foxtail; [4]
  Plant response rating, Giant foxtail: 0
Giant foxtail; [5]
  Plant response rating, Giant foxtail: 2
Giant foxtail; [6]
  Giant foxtail plant response rating: 2
Giant foxtail; [7]
  Giant foxtail plant response rating: 0
Giant foxtail; [8]
  Giant foxtail plant response rating: 0
morningglory; [1]
  Morningglory plant response rating: 0
morningglory; [2]
  Morningglory plant response rating: 0
morningglory; [3]
  Morningglory plant response rating: 0
morningglory; [4]
  Plant response rating, Morningglory: 0
morningglory; [5]
  Plant response rating, Morningglory: 0
morningglory; [6]
  Morningglory plant response rating: 0
morningglory; [7]
  Morningglory plant response rating: 0
morningglory; [8]
  Morningglory plant response rating: 0
pigweed; [1]
  Redroot pigweed plant response rating: 0
pigweed; [2]
  Redroot pigweed plant response rating: 0
pigweed; [3]
  Redroot pigweed plant response rating: 0
pigweed; [4]
  Plant response rating, Redroot pigweed: 0
pigweed; [5]
  Plant response rating, Redroot pigweed: 0
pigweed; [6]
  Redroot pigweed plant response rating: 0
pigweed; [7]
  Redroot pigweed plant response rating: 0
pigweed; [8]
  Redroot pigweed plant response rating: 0
rape; [1]
  Rape plant response rating: 0
rape; [2]
  Rape plant response rating: 0
rape; [3]
  Rape plant response rating: 0
rape; [4]
  Plant response rating, Rape: 0
rape; [5]
  Plant response rating, Rape: 0
rape; [6]
  Rape plant response rating: 0
rape; [7]
  Rape plant response rating: 0
rape; [8]
  Rape plant response rating: 0
soybean; [1]
  Soybean plant response rating: 0
soybean; [2]
  Soybean plant response rating: 0
soybean; [3]
  Soybean plant response rating: 0
soybean; [4]
  Plant response rating, Soybean: 0
soybean; [5]
  Plant response rating, Soybean: 0
soybean; [6]
  Soybean plant response rating: 0
soybean; [7]
  Soybean plant response rating: 0
soybean; [8]
  Soybean plant response rating: 0
Sugar beet; [1]
  Sugarbeets plant response rating: 0
Sugar beet; [2]
  Sugarbeets plant response rating: 0
Sugar beet; [3]
  Sugarbeets plant response rating: 0
Sugar beet; [4]
  Plant response rating, Sugarbeets: 0
Sugar beet; [5]
  Plant response rating, Sugarbeets: 0
Sugar beet; [6]
  Sugarbeets plant response rating: 0
Sugar beet; [7]
  Sugarbeets plant response rating: 0
Sugar beet; [8]
  Sugarbeets plant response rating: 0
velvetleaf; [1]
  Velvetleaf plant response rating: 0
velvetleaf; [2]
  Velvetleaf plant response rating: 0
velvetleaf; [3]
  Velvetleaf plant response rating: 0
velvetleaf; [4]
  Plant response rating, Velvetleaf: 0
velvetleaf; [5]
  Plant response rating, Velvetleaf: 0
velvetleaf; [6]
  Velvetleaf plant response rating: 0
velvetleaf; [7]
  Velvetleaf plant response rating: 0
velvetleaf; [8]
  Velvetleaf plant response rating: 0
wheat; [1]
  Wheat plant response rating: 0
wheat; [2]
  Wheat plant response rating: 0
wheat; [3]
  Wheat plant response rating: 0
wheat; [4]
  Plant response rating, Wheat: 0
wheat; [5]
  Plant response rating, Wheat: 0
wheat; [6]
  Wheat plant response rating: 0
wheat; [7]
  Wheat plant response rating: 0
wheat; [8]
  Wheat plant response rating: 0
Wild oat; [1]
  Wild oats plant response rating: 0
Wild oat; [2]
  Wild oats plant response rating: 0
Wild oat; [3]
  Wild oats plant response rating: 0
Wild oat; [4]
  Plant response rating, Wild oats: 0
Wild oat; [5]
  Plant response rating, Wild oats: 0
Wild oat; [6]
  Wild oats plant response rating: 0
Wild oat; [7]
  Wild oats plant response rating: 0
Wild oat; [8]
  Wild oats plant response rating: 0
Purple nutsedge; [1]
  Nutsedge plant response rating: 0
Purple nutsedge; [2]
  Nutsedge plant response rating: 0
Purple nutsedge; [3]
  Nutsedge plant response rating: 0
Purple nutsedge; [4]
  Plant response rating, Nutsedge: 0
Purple nutsedge; [5]
  Plant response rating, Nutsedge: 0
Purple nutsedge; [6]
  Nutsedge plant response rating: 0
Purple nutsedge; [7]
  Nutsedge plant response rating: 0
Purple nutsedge; [8]
  Nutsedge plant response rating: 0
rice; [9]
  Rice plant response rating: 0
rice; [10]
  Rice plant response rating: 0
rice; [11]
  Rice plant response rating: 0
rice; [12]
  Plant response rating, Rice: 0
Smallflower flatsedge; [9]
  S. Flatsedge plant response rating: 0
Smallflower flatsedge; [10]
  S. Flatsedge plant response rating: 0
Smallflower flatsedge; [11]
  S. Flatsedge plant response rating: 0
Smallflower flatsedge; [12]
  Plant response rating, S. Flatsedge: 0
Duck salad; [9]
  Ducksalad plant response rating: 0
Duck salad; [10]
  Ducksalad plant response rating: 0
Duck salad; [11]
  Ducksalad plant response rating: 0
Duck salad; [12]
  Plant response rating, Ducksalad: 0
